From patent publication US9096591B2, “Tetracyclic compounds” (Medivation Technologies, Inc., priority 2007, dated 2015)

Tests used:
[1] = biological target: T1, human recombinant adrenergic α2A receptor (Homo sapiens, UniProt P08913); assay: Adrenergic α2A radioligand binding ([3H]MK-912); parameters: Inhibition of ligand binding, Adren. alpha2A: concentration or dose not given beside the values; details: percent inhibition of specific binding
T1 construct: expressed in transfected cells; host or cells: insect Sf9 cells
T1 sequence (P08913 1-465): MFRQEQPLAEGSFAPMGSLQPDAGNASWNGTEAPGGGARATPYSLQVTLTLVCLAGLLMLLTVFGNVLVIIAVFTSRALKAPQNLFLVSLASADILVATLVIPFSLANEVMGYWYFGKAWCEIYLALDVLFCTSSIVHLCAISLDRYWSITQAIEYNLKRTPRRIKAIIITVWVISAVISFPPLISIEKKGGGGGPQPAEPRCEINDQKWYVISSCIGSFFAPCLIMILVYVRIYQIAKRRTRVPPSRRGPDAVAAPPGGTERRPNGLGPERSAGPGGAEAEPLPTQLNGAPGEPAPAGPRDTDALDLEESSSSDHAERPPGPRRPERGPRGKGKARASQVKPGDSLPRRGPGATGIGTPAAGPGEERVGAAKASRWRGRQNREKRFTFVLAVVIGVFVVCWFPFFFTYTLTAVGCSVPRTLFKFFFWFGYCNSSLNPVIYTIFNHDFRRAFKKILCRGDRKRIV
In short: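 Membranes from Sf9 cells expressing the receptor were incubated with 1 nM [3H]MK-912 for 60 minutes at 25° C in 50 mM Tris-HCl pH 7.4, 12.5 mM MgCl2, 2 mM EDTA. 10 μM WB-4101 defined non-specific binding. Values are percent inhibition of specific bound radioactivity after filtration.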

[2] = biological target: T2, human recombinant adrenergic α1D receptor (Homo sapiens, UniProt P25100); assay: Adrenergic α1D radioligand binding ([3H]Prozosin); parameters: Inhibition of ligand binding, Adren. alpha1D: concentration or dose not given beside the values; details: percent inhibition of specific binding
T2 construct: expressed in transfected cells; host or cells: HEK-293 cells
T2 sequence (P25100 1-572): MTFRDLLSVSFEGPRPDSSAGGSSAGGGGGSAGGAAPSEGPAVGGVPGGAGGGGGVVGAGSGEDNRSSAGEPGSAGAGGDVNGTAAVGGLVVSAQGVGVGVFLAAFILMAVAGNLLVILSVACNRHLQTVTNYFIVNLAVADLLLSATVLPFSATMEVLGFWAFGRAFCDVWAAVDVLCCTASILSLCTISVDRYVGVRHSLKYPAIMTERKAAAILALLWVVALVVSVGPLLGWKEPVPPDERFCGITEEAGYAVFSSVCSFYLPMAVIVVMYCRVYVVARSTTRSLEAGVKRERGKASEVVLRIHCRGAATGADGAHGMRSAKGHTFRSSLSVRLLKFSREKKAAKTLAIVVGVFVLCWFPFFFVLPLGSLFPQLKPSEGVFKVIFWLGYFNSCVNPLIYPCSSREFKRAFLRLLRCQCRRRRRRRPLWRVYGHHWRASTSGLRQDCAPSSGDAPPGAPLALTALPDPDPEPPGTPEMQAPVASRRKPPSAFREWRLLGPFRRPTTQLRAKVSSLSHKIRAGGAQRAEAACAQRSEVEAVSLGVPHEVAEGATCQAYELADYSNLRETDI
Method: Compounds of invention were incubated with 0.6 nM [^3H]Prozosin for 60 minutes at 25° C. Non-specific binding was estimated in the presence of 10 μM phentolamine. Receptor proteins were filtered and washed, the filters were then counted to determine [^3H]Prozosin specifically bound. […] Biochemical assay results are presented as the percent inhibition of specific binding in Table 6.

[3] = biological target: T3, human recombinant histamine H1 receptor (Homo sapiens, UniProt P35367); assay: Histamine H1 radioligand binding ([3H]Pyrilamine); details: percent inhibition of specific binding; screened at 1 μM; read-out: Inhibition of ligand binding, Hist. H1
T3 construct: expressed in transfected cells; host or cells: CHO cells
T3 sequence (P35367 whole entry): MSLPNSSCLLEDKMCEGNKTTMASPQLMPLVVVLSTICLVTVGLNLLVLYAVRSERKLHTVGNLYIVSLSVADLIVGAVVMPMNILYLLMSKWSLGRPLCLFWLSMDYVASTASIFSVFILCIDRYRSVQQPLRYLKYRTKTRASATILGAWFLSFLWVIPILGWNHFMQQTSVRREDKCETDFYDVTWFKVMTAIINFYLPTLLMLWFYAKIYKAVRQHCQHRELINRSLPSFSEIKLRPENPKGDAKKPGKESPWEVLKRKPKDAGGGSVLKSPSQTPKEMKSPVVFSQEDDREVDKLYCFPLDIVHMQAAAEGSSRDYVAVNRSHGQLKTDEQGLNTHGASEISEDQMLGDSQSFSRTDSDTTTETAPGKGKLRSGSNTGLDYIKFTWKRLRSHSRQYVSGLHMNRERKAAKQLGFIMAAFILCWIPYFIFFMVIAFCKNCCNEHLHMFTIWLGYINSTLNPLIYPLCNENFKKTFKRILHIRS
In short: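 Receptor expressed in CHO cells, assayed in 50 mM Tris-HCl pH 7.4 with 2 mM MgCl2, 100 mM NaCl, 250 mM sucrose. Compounds tested at 1 μM in 1% DMSO; non-specific binding set with 1 μM pyrilamine. Filter-bound radioactivity counted; values are percent inhibition of specific binding.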

Compound | Inhibition of ligand binding, Adren. alpha2A [1] | Inhibition of ligand binding, Adren. alpha1D [2] | inhibition at 1 µM [3]
Cc1cnc(CCn2c3c(c4cc(C(C)C)ccc42)CN(C)CC3)cn1 [Compound 369, 8-Isopropyl-2-methyl-5-[2-(5-methyl-pyrazin-2-yl)-ethyl]-2,3,4,5-tetrahydro-1H-pyrido[4,3-b]indole] | 25% | 51% | 39%
Cc1ncc(CCn2c3c(c4cc(C(C)C)ccc42)CN(C)CC3)cn1 [Compound 370, 8-Isopropyl-2-methyl-5-[2-(2-methyl-pyrimidin-5-yl)-ethyl]-2,3,4,5-tetrahydro-1H-pyrido[4,3-b]indole] | 35% | 71% | 85%
CCc1ccc(CCn2c3c(c4cc(Cl)ccc42)CN(C)CC3)cn1 [Compound 371, 8-Chloro-5-[2-(6-ethyl-pyridin-3-yl)-ethyl]-2-methyl-2,3,4,5-tetrahydro-1H-pyrido[4,3-b]indole] | 89% | 88% | 99%
CC(C)c1ccc(CCn2c3c(c4cc(Cl)ccc42)CN(C)CC3)cn1 [Compound 372, 8-Chloro-5-[2-(6-isopropyl-pyridin-3-yl)-ethyl]-2-methyl-2,3,4,5-tetrahydro-1H-pyrido[4,3-b]indole] | 100% | 94% | 101%
Cc1cccc2c3c(n(CCc4ccc(C(F)(F)F)nc4)c12)CCN(C)C3 [Compound 380, 5-(2-(6-(trifluoromethyl)pyridin-3-yl)ethyl)-2,3,4,5-tetrahydro-2,6-dimethyl-1H-pyrido[4,3-b]indole] | 78% | 73% | 68%
Cc1ccc2c(c1)c1c(n2CCc2cncnc2)CCN(C)C1 [Compound 387, 2,8-Dimethyl-5-(2-pyrimidin-5-yl-ethyl)-2,3,4,5-tetrahydro-1H-pyrido[4,3-b]indole] | 12% | 47% | 97%
Cc1ccc(CCn2c3c(c4cc(C(C)C)ccc42)CN(C)CC3)cn1 [Compound 392, 8-Isopropyl-2-methyl-5-[2-(6-methyl-pyridin-3-yl)-ethyl]-2,3,4,5-tetrahydro-1H-pyrido[4,3-b]indole] | 89% | 88% | 98%
Cc1ccc2c(c1)c1c(n2CCC(=O)N2CCC(NC(=O)OC(C)(C)C)CC2)CCN(C)C1 [Compound 393, tert-butyl 1-(3-(1,2,3,4-tetrahydro-2,8-dimethylpyrido[4,3-b]indol-5-yl)propanoyl)piperidin-4-ylcarbamate] | 98% | 16% | 28%
Cc1ccc2c(c1)c1c(n2CCc2ccc(C)[n+]([O-])c2)CCN(C)C1 [Compound 394, 5-(2-(2,8-dimethyl-3,4-dihydro-1H-pyrido[4,3-b]indol-5(2H)-yl)ethyl)-2-methylpyridine 1-oxide] | 15% | 9% | 30%
Cc1ccc2c(c1)c1c(n2CC(=O)N2CCCCC2)CCN(C)C1 [Compound 395, 2-(1,2,3,4-tetrahydro-2,8-dimethylpyrido[4,3-b]indol-5-yl)-1-(piperidin-1-yl)ethanone] | 4% | 9% | 20%
Cc1ccc2c(c1)c1c(n2CC(=O)N2Cc3ccccc3C2)CCN(C)C1 [Compound 397, 2-(1,2,3,4-tetrahydro-2,8-dimethylpyrido[4,3-b]indol-5-yl)-1-(isoindolin-2-yl)ethanone] | 16% | 19% | 77%
Cc1ccc2c(c1)c1c(n2CC(=O)N2CCc3ccccc3C2)CCN(C)C1 [Compound 398, 2-(1,2,3,4-tetrahydro-2,8-dimethylpyrido[4,3-b]indol-5-yl)-1-(3,4-dihydroisoquinolin-2(1H)-yl)ethanone] | 23% | 17% | 76%
Cc1ccc2c(c1)c1c(n2CC(=O)N2CCSCC2)CCN(C)C1 [Compound 399, 2-(1,2,3,4-tetrahydro-2,8-dimethylpyrido[4,3-b]indol-5-yl)-1-thiomorpholinoethanone] | 16% | 6% | 42%
Cc1ccc2c(c1)c1c(n2CC(=O)N2CCCC(C)C2)CCN(C)C1 (stereo not drawn) [Compound 401, 2-(1,2,3,4-tetrahydro-2,8-dimethylpyrido[4,3-b]indol-5-yl)-1-(3-methylpiperidin-1-yl)ethanone] | 3% | 1% | 36%
Cc1ccc(CCn2c3c(c4cc(Cl)ccc42)CN(c2cccc(C(F)(F)F)c2)CC3)cn1 [Compound 403, 8-Chloro-5-[2-(6-methyl-pyridin-3-yl)-ethyl]-2-(3-trifluoromethyl-phenyl)-2,3,4,5-tetrahydro-1H-pyrido[4,3-b]indole] | 30% | 19% | 54%
Cc1ccc(CCn2c3c(c4cc(Cl)c(F)cc42)CN(C)CC3)cn1 [Compound 404, 8-Chloro-7-fluoro-2-methyl-5-[2-(6-methyl-pyridin-3-yl)-ethyl]-2,3,4,5-tetrahydro-1H-pyrido[4,3-b]indole] | 94% | 81% | 102%
CN1CCN(CCn2c3c(c4cc(Cl)ccc42)CN(C)CC3)CC1 [Compound 417, 8-chloro-2,3,4,5-tetrahydro-2-methyl-5-(2-(4-methylpiperazin-1-yl)ethyl)-1H-pyrido[4,3-b]indole] | 28% | 1% | 10%
CN1CCc2c(c3cc(Cl)ccc3n2CCc2cncnc2)C1 [Compound 424, 8-Chloro-2-methyl-5-(2-pyrimidin-5-yl-ethyl)-2,3,4,5-tetrahydro-1H-pyrido[4,3-b]indole] | 28% | 57% | 104%
Cc1ccc2c(c1)c1c(n2CCc2cncc(C(F)(F)F)c2)CCN(C)C1 [Compound 425, 5-(2-(5-(trifluoromethyl)pyridin-3-yl)ethyl)-2,3,4,5-tetrahydro-2,8-dimethyl-1H-pyrido[4,3-b]indole] | 49% | 65% | 100%
CN1CCc2c(c3cc(Cl)ccc3n2CCc2cncc(C(F)(F)F)c2)C1 [Compound 426, 8-chloro-5-(2-(5-(trifluoromethyl)pyridin-3-yl)ethyl)-2,3,4,5-tetrahydro-2-methyl-1H-pyrido[4,3-b]indole] | 42% | 69% | 99%
Cc1cncc(CCn2c3c(c4cc(C)ccc42)CN(C)CC3)c1 [Compound 429, 2,3,4,5-tetrahydro-2,8-dimethyl-5-(2-(5-methylpyridin-3-yl)ethyl)-1H-pyrido[4,3-b]indole] | 67% | 69% | 100%
